Data taken from the supplement of paper PMC10307832.

Assays:
Experiment in all cases: relative viability (nuclei count vs DMSO), 5 days (fraction); higher = more cells survive
[1] = tested on: NCI-H2228
Method in brief: (§1)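 Five library-drug doses in √10 steps were combined with a fixed anchor-drug dose, or a single drug was given alone, by pin tool to lung cancer cell lines in 1536-well plates the day after seeding. Nuclei were stained and counted after 5 days. Relative viability is the nuclei count in treated wells over that in vehicle wells, taken as the median of duplicate plates.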

[2] = tested on: NCI-H1395
Method in brief: as §1

[3] = tested on: 201T
Method in brief: as §1

[4] = tested on: NCI-H2009
Method in brief: as §1

[5] = tested on: NCI-H838
Method in brief: as §1

[6] = tested on: NCI-H647
Method in brief: as §1

[7] = tested on: NCI-H23
Method in brief: as §1

[8] = tested on: NCI-H2085
Method in brief: as §1

[9] = tested on: NCI-H650
Method in brief: as §1

[10] = tested on: EPLC-272H
Method in brief: as §1

[11] = tested on: PC-14
Method in brief: as §1

[12] = tested on: NCI-H2405
Method in brief: as §1

**Q.** For `Cc1csc(=NC2CCCCC2)n1/N=C/c1ccc(O)c(O)c1O` [MIM1] + O=C(c1cc(Cc2n[nH]c(=O)c3ccccc23)ccc1F)N1CCN(C(=O)C2CC2)CC1 [Olaparib] (partner 8 µM), which relative viability ([1]; first compound 6.325 µM) is on record?
**A.** Its relative viability is 0.227.

**Q.** And the relative viability ([1]; first compound 20 µM)?
**A.** The relative viability was 0.192.

**Q.** And the relative viability ([2]; first compound 0.2 µM)?
**A.** The relative viability was 0.454.

**Q.** What about the relative viability ([2]; first compound 0.6325 µM) of the same compound?
**A.** Its relative viability is 0.485.

**Q.** What about the relative viability ([2]; first compound 2 µM) of the same compound?
**A.** The relative viability was 0.414.

**Q.** And the relative viability ([2]; first compound 6.325 µM)?
**A.** Its relative viability is 0.436.

**Q.** And the relative viability ([2]; first compound 20 µM)?
**A.** The relative viability was 0.346.

**Q.** And the relative viability ([3]; first compound 0.2 µM)?
**A.** Its relative viability is 0.833.

**Q.** What about the relative viability ([3]; first compound 0.6325 µM) of the same compound?
**A.** The relative viability was 0.863.

**Q.** What about the relative viability ([3]; first compound 2 µM) of the same compound?
**A.** Its relative viability is 0.831.

**Q.** And the relative viability ([3]; first compound 6.325 µM)?
**A.** The relative viability was 0.415.

**Q.** And the relative viability ([3]; first compound 20 µM)?
**A.** Its relative viability is 0.396.

**Q.** And the relative viability ([4]; first compound 0.2 µM)?
**A.** The relative viability was 0.662.

**Q.** What about the relative viability ([4]; first compound 0.6325 µM) of the same compound?
**A.** The relative viability was 0.655.

**Q.** What about the relative viability ([4]; first compound 2 µM) of the same compound?
**A.** The relative viability was 0.723.

**Q.** And the relative viability ([4]; first compound 6.325 µM)?
**A.** Its relative viability is 0.504.

**Q.** And the relative viability ([4]; first compound 20 µM)?
**A.** Its relative viability is 0.482.

**Q.** And the relative viability ([5]; first compound 0.2 µM)?
**A.** The relative viability was 0.731.

**Q.** What about the relative viability ([5]; first compound 0.6325 µM) of the same compound?
**A.** Its relative viability is 0.944.

**Q.** What about the relative viability ([5]; first compound 2 µM) of the same compound?
**A.** Its relative viability is 0.85.

**Q.** What about the relative viability ([5]; first compound 6.325 µM) of the same compound?
**A.** Its relative viability is 0.609.

**Q.** And the relative viability ([5]; first compound 20 µM)?
**A.** Its relative viability is 0.237.

**Q.** What about the relative viability ([6]; first compound 0.2 µM) of the same compound?
**A.** The relative viability was 0.611.

**Q.** And the relative viability ([6]; first compound 0.6325 µM)?
**A.** Its relative viability is 0.53.

**Q.** And the relative viability ([6]; first compound 2 µM)?
**A.** Its relative viability is 0.697.

**Q.** What about the relative viability ([6]; first compound 6.325 µM) of the same compound?
**A.** The relative viability was 0.369.

**Q.** What about the relative viability ([6]; first compound 20 µM) of the same compound?
**A.** The relative viability was 0.0666.

**Q.** What about the relative viability ([7]; first compound 0.2 µM) of the same compound?
**A.** The relative viability was 0.302.

**Q.** And the relative viability ([7]; first compound 0.6325 µM)?
**A.** The relative viability was 0.266.

**Q.** What about the relative viability ([7]; first compound 2 µM) of the same compound?
**A.** The relative viability was 0.215.

**Q.** And the relative viability ([7]; first compound 6.325 µM)?
**A.** The relative viability was 0.111.

**Q.** What about the relative viability ([7]; first compound 20 µM) of the same compound?
**A.** The relative viability was 0.13.

**Q.** What about the relative viability ([8]; first compound 0.2 µM) of the same compound?
**A.** Its relative viability is 0.768.

**Q.** And the relative viability ([8]; first compound 0.6325 µM)?
**A.** The relative viability was 0.797.

**Q.** And the relative viability ([8]; first compound 2 µM)?
**A.** Its relative viability is 0.771.

**Q.** And the relative viability ([8]; first compound 6.325 µM)?
**A.** Its relative viability is 0.596.

**Q.** And the relative viability ([8]; first compound 20 µM)?
**A.** Its relative viability is 0.641.

**Q.** And the relative viability ([9]; first compound 0.2 µM)?
**A.** The relative viability was 0.421.

**Q.** And the relative viability ([9]; first compound 0.6325 µM)?
**A.** The relative viability was 0.364.

**Q.** What about the relative viability ([9]; first compound 2 µM) of the same compound?
**A.** The relative viability was 0.381.

**Q.** And the relative viability ([9]; first compound 6.325 µM)?
**A.** The relative viability was 0.357.

**Q.** And the relative viability ([9]; first compound 20 µM)?
**A.** Its relative viability is 0.127.

**Q.** What about the relative viability ([10]; first compound 0.2 µM) of the same compound?
**A.** Its relative viability is 0.664.

**Q.** And the relative viability ([10]; first compound 0.6325 µM)?
**A.** The relative viability was 0.858.

**Q.** And the relative viability ([10]; first compound 2 µM)?
**A.** Its relative viability is 0.622.

**Q.** What about the relative viability ([10]; first compound 6.325 µM) of the same compound?
**A.** Its relative viability is 0.111.

**Q.** What about the relative viability ([10]; first compound 20 µM) of the same compound?
**A.** Its relative viability is 0.108.

**Q.** And the relative viability ([11]; first compound 0.2 µM)?
**A.** Its relative viability is 0.276.

**Q.** What about the relative viability ([11]; first compound 0.6325 µM) of the same compound?
**A.** Its relative viability is 0.283.

**Q.** What about the relative viability ([11]; first compound 2 µM) of the same compound?
**A.** Its relative viability is 0.228.

**Q.** What about the relative viability ([11]; first compound 6.325 µM) of the same compound?
**A.** The relative viability was 0.232.

**Q.** What about the relative viability ([11]; first compound 20 µM) of the same compound?
**A.** Its relative viability is 0.0784.

**Q.** What about the relative viability ([12]; first compound 0.2 µM) of the same compound?
**A.** The relative viability was 0.881.

**Q.** And the relative viability ([12]; first compound 0.6325 µM)?
**A.** Its relative viability is 0.918.

**Q.** What about the relative viability ([12]; first compound 2 µM) of the same compound?
**A.** Its relative viability is 0.827.

**Q.** And the relative viability ([12]; first compound 6.325 µM)?
**A.** The relative viability was 0.681.

**Q.** What about the relative viability ([12]; first compound 20 µM) of the same compound?
**A.** Its relative viability is 0.369.
